Results as given in US9085806B2, “Methods for treating infection involving identification of a carbapanemase gene” (priority 2007, dated 2015).

Tests used:
Assay in all cases: Antimicrobial susceptibility testing, broth microdilution (CLSI)
Assay type in all cases: cell-based
E. coli Strain ID 301896 = settings: Escherichia coli; Strain ID 301896 ESCCOL, ESBL positive; Mueller-Hinton broth; read-out: minimum inhibition concentration (MIC)
From the text: (§1) Carbapenem-resistant Klebsiella and E. coli were identified by broth microdilution as described by CLSI from the BD ID/AST microbial bank (1). Wild-type (Ampicillin sensitive) E. coli ATCC 25922 (Strain ID 300960) was used through out the experiments as a negative control. Three strains previously determined to contain KPC-1, KPC-2, and KPC-3 (Strain ID 301916=KPC-1, 301917=KPC-2, 301918=KPC-3) were used as positive controls (4). […] ESBL positive strains were identified using the CLSI recommended broth microdilution assay (2). Prior to any processing or extraction, all strains were streaked out on Trypticase Soy Agar (TSA) plates containing 5% Sheep red blood cells (BD Diagnostic Systems, Sparks, Md.) and grown at 35° C. overnight.
(§2) Antimicrobial susceptibility testing was performed using Mueller-Hinton broth (BD Diagnostic Systems, Sparks, Md.) as described by CLSI (1). Antimicrobial powders were acquired from the following companies; Ampicillin (Amp) and Cefotaxime (CTX) (Sigma Chemical Co., St. Louis, Mo.), Ceftazidime (CAZ) (Eli Lilly, Indianapolis, Ind.), Clavulanic acid (Smith-Kline, King of Prussia, Pa.), Imipenem (IPM) (Merck & Co., Rahway, N.J.).
(§3) The BD ID/AST Microbial Bank was screened for carbapenem-resistant Klebsiella and E. coli with broth microdilution as described by CLSI (2). Klebsiella spp. and E. coli were chosen because they are the primary reservoir species for the plasmid-borne KPC gene.
(§4) ESBL positive strains were identified using the CLSI recommended broth microdilution assay (2). Briefly, this broth microdilution assay has a two-fold dilution scheme between a defined range of the antimicrobial agent. For example, where the defined range of the antimicrobial agent is […], the two-fold dilution between wells is represented by 0.25, 0.5, 1, 2, 4, 8, and 16 μg/ml. To identify ESBL positive strains, growth is evaluated in wells containing the antimicrobial agent of interest at these various two-fold dilutions across the defined range either alone or in combination with Clavulanic acid in order to determine the MIC for the antimicrobial agent alone or in combination with Clavulanic acid. […] A wild-type E. coli Strain ID 300960 was also screened and used as a negative control for all of the real-time assays.

E. coli Strain ID 303364 = settings: Escherichia coli; Strain ID 303364 ESCCOL; Mueller-Hinton broth; read-out: minimum inhibition concentration (MIC)
From the text: as §1, §2, §3, §4

[1] = test system: Klebsiella pneumoniae Strain ID 301917 (KPC-2); settings: Strain ID 301917 KLEPNEP, KPC-2 positive control, ESBL positive, Mueller-Hinton broth, read-out: minimum inhibition concentration (MIC)
From the text: as §1, §2, §3, §4

E. coli Strain ID 303369 = settings: Escherichia coli; Strain ID 303369 ESCCOL; Mueller-Hinton broth; read-out: minimum inhibition concentration (MIC)
From the text: as §1, §2, §3, §4

[2] = test system: Klebsiella pneumoniae Strain ID 303375; settings: Strain ID 303375 KLEPNEP, Mueller-Hinton broth, read-out: minimum inhibition concentration (MIC)
From the text: as §1, §2, §3, §4

[3] = test system: Klebsiella oxytoca Strain ID 300967; settings: Strain ID 300967 KLEOXY, Mueller-Hinton broth, read-out: minimum inhibition concentration (MIC)
From the text: as §1, §2, §3, §4

[4] = test system: Klebsiella pneumoniae Strain ID 301919; settings: Strain ID 301919 KLEPNEP, ESBL positive, Mueller-Hinton broth, read-out: minimum inhibition concentration (MIC)
From the text: as §1, §2, §3, §4

E. coli Strain ID 301905 = settings: Escherichia coli; Strain ID 301905 ESCCOL; Mueller-Hinton broth; read-out: minimum inhibition concentration (MIC)
From the text: as §1, §2, §3, §4

[5] = test system: Klebsiella pneumoniae Strain ID 301899; settings: Strain ID 301899 KLEPNEP, Mueller-Hinton broth, read-out: minimum inhibition concentration (MIC)
From the text: as §1, §2, §3, §4

[6] = test system: Klebsiella oxytoca Strain ID 303990; settings: Strain ID 303990 KLEOXY, Mueller-Hinton broth, read-out: minimum inhibition concentration (MIC)
From the text: as §1, §2, §3, §4

E. coli Strain ID 301921 = settings: Escherichia coli; Strain ID 301921 ESCCOL, ESBL positive; Mueller-Hinton broth; read-out: minimum inhibition concentration (MIC)
From the text: as §1, §2, §3, §4

[7] = test system: Klebsiella pneumoniae Strain ID 301891; settings: Strain ID 301891 KLEPNEP, Mueller-Hinton broth, read-out: minimum inhibition concentration (MIC)
From the text: as §1, §2, §3, §4

E. coli Strain ID 301894 = settings: Escherichia coli; Strain ID 301894 ESCCOL, ESBL positive; Mueller-Hinton broth; read-out: minimum inhibition concentration (MIC)
From the text: as §1, §2, §3, §4

E. coli Strain ID 301922 = settings: Escherichia coli; Strain ID 301922 ESCCOL, ESBL positive; Mueller-Hinton broth; read-out: minimum inhibition concentration (MIC)
From the text: as §1, §2, §3, §4

[8] = test system: E. coli Strain ID 301918 (KPC-3); settings: Escherichia coli; Strain ID 301918 ESCCOL, KPC-3 positive control; Mueller-Hinton broth; read-out: minimum inhibition concentration (MIC)
From the text: as §1, §2, §3, §4

[9] = test system: Klebsiella pneumoniae Strain ID 300996; settings: Strain ID 300996 KLEPNEP, ESBL positive, Mueller-Hinton broth, read-out: minimum inhibition concentration (MIC)
From the text: as §1, §2, §3, §4

E. coli Strain ID 301888 = settings: Escherichia coli; Strain ID 301888 ESCCOL, ESBL positive; Mueller-Hinton broth; read-out: minimum inhibition concentration (MIC)
From the text: as §1, §2, §3, §4

[10] = test system: E. coli ATCC 25922 (Strain ID 300960); settings: Escherichia coli, ATCC25922; Strain ID 300960 ESCCOL, wild-type negative control; Mueller-Hinton broth; read-out: minimum inhibition concentration (MIC)
From the text: as §1, §2, §3, §4

[11] = test system: Klebsiella pneumoniae Strain ID 301008; settings: Strain ID 301008 KLEPNEP, Mueller-Hinton broth, read-out: minimum inhibition concentration (MIC)
From the text: as §1, §2, §3, §4

[12] = test system: Klebsiella pneumoniae Strain ID 301916 (KPC-1); settings: Strain ID 301916 KLEPNEP, KPC-1 positive control, Mueller-Hinton broth, read-out: minimum inhibition concentration (MIC)
From the text: as §1, §2, §3, §4

E. coli Strain ID 301892 = settings: Escherichia coli; Strain ID 301892 ESCCOL, ESBL positive; Mueller-Hinton broth; read-out: minimum inhibition concentration (MIC)
From the text: as §1, §2, §3, §4

[13] = test system: Klebsiella pneumoniae Strain ID 301920; settings: Strain ID 301920 KLEPNEP, ESBL positive, Mueller-Hinton broth, read-out: minimum inhibition concentration (MIC)
From the text: as §1, §2, §3, §4

E. coli Strain ID 303365 = settings: Escherichia coli; Strain ID 303365 ESCCOL, ESBL positive; Mueller-Hinton broth; read-out: minimum inhibition concentration (MIC)
From the text: as §1, §2, §3, §4

[14] = test system: Klebsiella pneumoniae Strain ID 301898; settings: Strain ID 301898 KLEPNEP, Mueller-Hinton broth, read-out: minimum inhibition concentration (MIC)
From the text: as §1, §2, §3, §4

| MIC (E. coli Strain ID 301896) | MIC (E. coli Strain ID 303364) | MIC [1] | MIC (E. coli Strain ID 303369) | MIC [2] | MIC [3] | MIC [4] | MIC (E. coli Strain ID 301905) | MIC [5] | MIC [6] | MIC (E. coli Strain ID 301921) | MIC [7] | MIC (E. coli Strain ID 301894) | MIC (E. coli Strain ID 301922) | MIC [8] | MIC [9] | MIC (E. coli Strain ID 301888) | MIC [10] | MIC [11] | MIC [12] | SMILES | further results |
| --- | --- | --- | --- | --- | --- | --- | --- | --- | --- | --- | --- | --- | --- | --- | --- | --- | --- | --- | --- | --- | --- |
| > 32 µg/mL | > 32 µg/mL | > 32 µg/mL | > 32 µg/mL | > 32 µg/mL | > 32 µg/mL | > 32 µg/mL | > 32 µg/mL | > 32 µg/mL | > 32 µg/mL | > 32 µg/mL | > 32 µg/mL | > 32 µg/mL | > 32 µg/mL | > 32 µg/mL | > 32 µg/mL | > 32 µg/mL | ≤ 0.25 µg/mL | 16 µg/mL | > 32 µg/mL | CC1(C)S[C@@H]2[C@H](NC(=O)[C@H](N)c3ccccc3)C(=O)N2[C@H]1C(=O)O [Amp, Ampicillin] | MIC (E. coli Strain ID 301892): > 32 µg/mL; MIC [13]: > 32 µg/mL; MIC (E. coli Strain ID 303365): > 32 µg/mL; MIC [14]: > 32 µg/mL |
| 64 µg/mL | 32 µg/mL | 32 µg/mL | 32 µg/mL | 32 µg/mL | > 64 µg/mL | 16 µg/mL | > 64 µg/mL | > 64 µg/mL | > 64 µg/mL | > 64 µg/mL | 4 µg/mL | 16 µg/mL | > 64 µg/mL | > 64 µg/mL | 2 µg/mL | 32 µg/mL | ≤ 0.25 µg/mL | ≤ 0.25 µg/mL | > 64 µg/mL | CO/N=C(\C(=O)N[C@@H]1C(=O)N2C(C(=O)O)=C(COC(C)=O)CS[C@H]12)c1csc(N)n1 [CTX, Cefotaxime] | MIC (E. coli Strain ID 301892): 32 µg/mL; MIC [13]: > 64 µg/mL; MIC (E. coli Strain ID 303365): > 64 µg/mL; MIC [14]: > 64 µg/mL |
| ≤ 2 µg/mL | ≤ 2 µg/mL | 8 µg/mL | ≤ 2 µg/mL | ≤ 2 µg/mL | > 16 µg/mL | ≤ 2 µg/mL | 8 µg/mL | 4 µg/mL | 16 µg/mL | ≤ 2 µg/mL | ≤ 2 µg/mL | ≤ 2 µg/mL | ≤ 0.25 µg/mL | 16 µg/mL | 8 µg/mL | 4 µg/mL | ≤ 0.25 µg/mL | ≤ 2 µg/mL | 8 µg/mL | C[C@@H](O)[C@H]1C(=O)N2C(C(=O)O)=C(SCCN=CN)C[C@H]12 [IPM, Imipenem] | MIC (E. coli Strain ID 301892): 4 µg/mL; MIC [13]: ≤ 2 µg/mL; MIC (E. coli Strain ID 303365): ≤ 2 µg/mL; MIC [14]: 4 µg/mL |

| SMILES | MIC (E. coli Strain ID 301896) | MIC (E. coli Strain ID 303364) | MIC [1] | MIC (E. coli Strain ID 303369) | MIC [2] | MIC [3] | MIC [4] | MIC (E. coli Strain ID 301905) | MIC [5] | MIC [6] | MIC (E. coli Strain ID 301921) | MIC [7] | MIC (E. coli Strain ID 301894) | MIC (E. coli Strain ID 301922) | MIC [8] | MIC [9] | MIC (E. coli Strain ID 301888) | MIC [10] | MIC [11] | MIC [12] | further results |
| --- | --- | --- | --- | --- | --- | --- | --- | --- | --- | --- | --- | --- | --- | --- | --- | --- | --- | --- | --- | --- | --- |
| CC(C)(O/N=C(\C(=O)N[C@@H]1C(=O)N2C(C(=O)[O-])=C(C[n+]3ccccc3)CS[C@H]12)c1csc(N)n1)C(=O)O [CAZ, Ceftazidime] | > 128 µg/mL | 128 µg/mL | 4 µg/mL | 64 µg/mL | 64 µg/mL | 128 µg/mL | 32 µg/mL | 32 µg/mL | > 128 µg/mL | 128 µg/mL | 32 µg/mL | 16 µg/mL | > 128 µg/mL | 16 µg/mL | > 128 µg/mL | 4 µg/mL | 64 µg/mL | ≤ 0.5 µg/mL | ≤ 0.25 µg/mL | > 128 µg/mL | MIC (E. coli Strain ID 301892): 64 µg/mL; MIC [13]: 64 µg/mL; MIC (E. coli Strain ID 303365): > 128 µg/mL; MIC [14]: > 128 µg/mL |
